Assay results taken from US20260132132A1, “3A,4,5,6-TETRAHYDRO-1 H-PYRAZOLO[3,4-C]PYRIDIN-7(7AH)-ONE DERIVATIVES AS FACTOR XIIA INHIBITORS” (KALVISTA PHARMACEUTICALS LIMITED, priority 2022, published 2026).
pIC50: −log10 of the molar value.

Assays:
[1] = target: T1, Human Factor XIIa (hFXIIa) (Homo sapiens, UniProt P00748); test: Determination of Human Factor XIIa (hFXIIa) inhibition, fluorogenic substrate IC50 assay; type: biochemical; conditions: fluorogenic substrate H-DPro-Phe-Arg-AFC at Km, 25° C., read-out: Human FXIIa IC50
T1 construct: purchased Enzyme Research Laboratories
T1 sequence (P00748 373-615 limits assumed): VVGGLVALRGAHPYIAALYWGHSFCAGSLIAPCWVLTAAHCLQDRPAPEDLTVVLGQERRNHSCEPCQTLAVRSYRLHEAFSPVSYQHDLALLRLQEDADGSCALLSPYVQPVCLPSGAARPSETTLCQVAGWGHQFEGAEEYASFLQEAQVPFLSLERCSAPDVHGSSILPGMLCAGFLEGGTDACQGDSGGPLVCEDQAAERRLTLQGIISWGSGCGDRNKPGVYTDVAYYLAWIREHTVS
T1 sequence (P00748 20-372 partner limits assumed): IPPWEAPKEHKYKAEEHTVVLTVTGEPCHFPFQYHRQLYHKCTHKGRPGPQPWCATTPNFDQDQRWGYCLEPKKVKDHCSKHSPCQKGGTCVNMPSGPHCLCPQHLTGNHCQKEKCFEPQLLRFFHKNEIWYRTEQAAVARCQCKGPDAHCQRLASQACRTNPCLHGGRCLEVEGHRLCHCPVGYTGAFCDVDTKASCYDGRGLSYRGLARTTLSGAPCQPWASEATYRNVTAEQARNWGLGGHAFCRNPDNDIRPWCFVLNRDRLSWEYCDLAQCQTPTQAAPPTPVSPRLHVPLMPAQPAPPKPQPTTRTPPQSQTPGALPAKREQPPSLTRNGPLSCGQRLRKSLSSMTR
Experimental: Determination of Human Factor XIIa (hFXIIa) inhibition
The Km for the cleavage of the substrate by hFXIIa was determined by standard transformation of the Michaelis-Menten equation, with subsequent inhibition assays performed at substrate Km concentration.

FXa = FXa (Homo sapiens, UniProt P00742); test: Related protease inhibition: FXa, fluorogenic substrate; type: biochemical; conditions: fluorogenic substrate at Km, 25° C.; H1-H3 = % activity at 40 μM
Experimental: Human serine protease enzyme Plasma Kallikrein, KLK1, FXa, Plasmin, Thrombin and Trypsin were assayed for enzymatic activity using an appropriate fluorogenic substrate at Km concentration, FXIa at fixed substrate concentration of 100 μM and various concentrations of the test compound.

Sequence of FXa (P00742 235-488 limits assumed): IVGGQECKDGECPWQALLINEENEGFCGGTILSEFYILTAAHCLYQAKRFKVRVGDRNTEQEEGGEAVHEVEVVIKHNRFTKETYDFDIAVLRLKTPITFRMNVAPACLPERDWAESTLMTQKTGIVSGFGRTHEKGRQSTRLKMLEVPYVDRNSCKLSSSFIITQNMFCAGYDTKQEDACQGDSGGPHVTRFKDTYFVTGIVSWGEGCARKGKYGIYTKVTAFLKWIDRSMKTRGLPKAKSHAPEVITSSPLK
Sequence of FXa (P00742 41-179 partner limits assumed): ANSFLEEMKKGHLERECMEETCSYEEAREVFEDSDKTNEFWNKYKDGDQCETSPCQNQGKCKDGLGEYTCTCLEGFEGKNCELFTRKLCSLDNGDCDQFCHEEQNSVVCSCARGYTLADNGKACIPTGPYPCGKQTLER

pIC50 [1] | pIC50 (FXa) | Compound
7.00 to 8.00 | 5.00 to 5.52 | Cc1cc(CNC(=O)c2nn(-c3cccc(Cl)c3)c3c2CCN(c2ccc4c(c2)C(=O)N(CC(F)F)CCO4)C3=O)n[nH]1 [Example 1382, 1-(3-chlorophenyl)-6-(4-(2,2-difluoroethyl)-5-oxo-2,3,4,5-tetrahydrobenzo[f][1,4]oxazepin-7-yl)-N-((5-methyl-1H-pyrazol-3-yl)methyl)-7-oxo-4,5,6,7-tetrahydro-1H-pyrazolo[3,4-c]pyridine-3-carboxamide]
6.52 to 7.00 | 4.40 to 5.00 | COCCN1CCc2ccc(N3CCc4c(C(=O)NCc5cc(C)n(C)n5)nn(-c5cccc(Cl)c5)c4C3=O)cc2C1=O [Example 1262, 1-(3-chlorophenyl)-N-((1,5-dimethyl-1H-pyrazol-3-yl)methyl)-6-(2-(2-methoxyethyl)-1-oxo-1,2,3,4-tetrahydroisoquinolin-7-yl)-7-oxo-4,5,6,7-tetrahydro-1H-pyrazolo[3,4-c]pyridine-3-carboxamide]
6.52 to 7.00 | 5.52 to 6.00 | Cc1nc2c(C#N)nn(-c3cccc(Cl)c3)c2c(=O)n1-c1ccc2c(c1)CN(CCO)CC2 [Example 3012, 1-(3-chlorophenyl)-6-(2-(2-hydroxyethyl)-1,2,3,4-tetrahydroisoquinolin-7-yl)-5-methyl-7-oxo-6,7-dihydro-1H-pyrazolo[4,3-d]pyrimidine-3-carbonitrile]
5.00 to 5.52 | < 4.40 | CCNC(=O)c1nn(-c2cncc(C)c2)c2c1CCN(c1ccc3c(c1)C(=O)N(C)CC3)C2=O [Example 2027, N-ethyl-6-(2-methyl-1-oxo-1,2,3,4-tetrahydroisoquinolin-7-yl)-1-(5-methylpyridin-3-yl)-7-oxo-4,5,6,7-tetrahydro-1H-pyrazolo[3,4-c]pyridine-3-carboxamide]
6.52 to 7.00 | 4.40 to 5.00 | COc1cccnc1CNC(=O)c1nn(-c2cccc(Cl)c2)c2c1CCN(c1cc3c(nn1)CCN(CCO)C3)C2=O [Example 1229, 1-(3-chlorophenyl)-6-(6-(2-hydroxyethyl)-5,6,7,8-tetrahydropyrido[4,3-c]pyridazin-3-yl)-N-((3-methoxypyridin-2-yl)methyl)-7-oxo-4,5,6,7-tetrahydro-1H-pyrazolo[3,4-c]pyridine-3-carboxamide]
6.52 to 7.00 | < 4.40 | CN1CCc2ccc(N3CCc4c(C(=O)NCc5cc(C6CC6)n[nH]5)nn(-c5cccc(Cl)c5)c4C3=O)cc2C1=O [Example 1231, 1-(3-chlorophenyl)-N-((3-cyclopropyl-1H-pyrazol-5-yl)methyl)-6-(2-methyl-1-oxo-1,2,3,4-tetrahydroisoquinolin-7-yl)-7-oxo-4,5,6,7-tetrahydro-1H-pyrazolo[3,4-c]pyridine-3-carboxamide]
7.00 to 8.00 | 4.40 to 5.00 | Cc1ccncc1CNC(=O)c1nn(-c2cccc(Cl)c2)c2c1CCN(c1ccc3c(c1)C(=O)N(CCO)CCO3)C2=O [Example 1299, 1-(3-chlorophenyl)-6-(4-(2-hydroxyethyl)-5-oxo-2,3,4,5-tetrahydrobenzo[f][1,4]oxazepin-7-yl)-N-((4-methylpyridin-3-yl)methyl)-7-oxo-4,5,6,7-tetrahydro-1H-pyrazolo[3,4-c]pyridine-3-carboxamide]
4.40 to 5.00 | < 4.40 | CCNC(=O)c1nn(-c2ccc(C)cn2)c2c1CCN(c1ccc3c(c1)C(=O)N(C)CC3)C2=O [Example 2028, N-ethyl-6-(2-methyl-1-oxo-1,2,3,4-tetrahydroisoquinolin-7-yl)-1-(5-methylpyridin-2-yl)-7-oxo-4,5,6,7-tetrahydro-1H-pyrazolo[3,4-c]pyridine-3-carboxamide]
7.00 to 8.00 | < 4.40 | Cc1cc(CNC(=O)c2nn(-c3cccc(Cl)c3)c3c(=O)n(-c4ccc5c(c4)C(=O)N(CCO)CC5)c(C)nc23)nn1C [Example 3015, 1-(3-chlorophenyl)-N-((1,5-dimethyl-1H-pyrazol-3-yl)methyl)-6-(2-(2-hydroxyethyl)-1-oxo-1,2,3,4-tetrahydroisoquinolin-7-yl)-5-methyl-7-oxo-6,7-dihydro-1H-pyrazolo[4,3-d]pyrimidine-3-carboxamide]
